# From ChEMBL document CHEMBL1121462, “Effect of changing the COOH-terminal amide group present in the hydrophilic cluster of oxytocin to dimethylamide” (1980)
# Columns and labels:
# Rattus norvegicus [1] = organism: Rattus norvegicus; assay: Potency by rat pressor assay; type: functional
# Rattus norvegicus [2] = organism: Rattus norvegicus; assay: Potency by rat antidiuretic assay; type: functional, Urine
# Gallus gallus = organism: Gallus gallus; assay: Potency by avian vasodepressor assay
structure (smiles),measurement,setting,value
CC[C@H](C)[C@@H]1NC(=O)[C@H](Cc2ccc(O)cc2)NC(=O)[C@@H](N)CSSC[C@@H](C(=O)N2CCC[C@H]2C(=O)N[C@@H](CC(C)C)C(=O)NCC(=O)N(C)C)NC(=O)[C@H](CC(N)=O)NC(=O)[C@H](CCC(N)=O)NC1=O,Potency,Rattus norvegicus [1],<0.01 mg
same,Potency,Rattus norvegicus [2],0.096 mg
same,Potency,Gallus gallus,<0.07 mg
